# Like-named read-outs stand apart in the source and are kept apart here. *1 amine or outer side, *2 acyl side, *3 side chain or, on linkers, in order; H or OH if unused. Where a SMILES comes first, the peptide text is derived from it. Bridges are numbered along the chain shown (N, C = ends). [ ]: non-standard residue; d: D form. Trp(2-yl) = O=C([C@H](Cc1c([*:3])[nH]c2ccccc12)N[*:1])[*:2]; Leu(4R-OH,5-OH) = C[C@](O)(CO)C[C@H](N)C(=O)O; dAsp(3S-OH) = N[C@@H](C(=O)O)[C@H](O)C(=O)O; cisHyp = O=C(O)[C@@H]1C[C@H](O)CN1
# Tests used:
# [1] = cited from earlier work
# Protocol: The difference in detectable time in the urine can be explained by the low level of internal exposure (amatoxins in the blood). […] The daily amounts of peptide toxins excreted in urine in beagles without biliary drainage(mg). Time after α-Amanitin β-Amanitin Phallacidin ingestion 20 mg/kg 60 mg/kg 20 mg/kg 60 mg/kg 20 mg/kg 60 mg/kg group group group group group group 0-1d 0.0379 0.0593 0.0156 0.0251 0.0035 0.0088 (97.9%) (92.8%) (99.9%) (94.7%) (94.2%) (76%) 1-2d 0.0388 0.0618 0.01567 0.0255 0.0037 0.0110 (99.995%) (97.5%) (100%) (96.2%) (100%) (93%) 2-3d 0.0002 0.0626 0 0.0260 0 0.0115 (100%) (99.4%) (100%) (98.2%) (100%) (97.3%) 3-4d 0 0.063 ...
# [2] = Peptide toxins in the urine of beagles with biliary drainage; format: in vivo, beagle dogs; settings: for Total (accumulated) amount excreted in urine / percentage of total urine excretion, Total: 0–4 days
# Protocol: The study was approved by National Institute of Occupational Health and Poison Control review board for animal experiments. Twenty-four male beagles (age, 8–10 months; weight, 10 ± 1 kg) were obtained from Beijing Institute of Xieerxin Biology Resource (Beijing, China). They were randomly divided into four groups of six animals each: control, biliary drainage, and 20 and 60 mg/kg with biliary drainage groups. The biliary drainage operation was conducted in all groups barring the control group. The dogs were dressed in homemade underwear, coats, and Elizabeth circles for a week to ensure pre-experimental acclimatization (Figure S8a–c). After determining the baseline values for biochemical indicators, the dogs were fasted for 24 h but received water ad libitum. They were anesthetized by intravenous administration of pentobarbital sodium (3%, 1 mL/kg) during the surgery. A temperature of 38–39 °C was maintained with a warming mat. After skin preservation and sterilization, the abdominal cavity was opened through the central abdomen. The abdomen was explored and blunt dissection of the common bile duct was performed (Figure S8d). The common bile duct and its branches were ligated from the intestinal side. A 7.0-Fr drainage catheter (COOK, Bloomington, IN, USA) was percutaneously inserted into the gallbladder, and a medical drainage bag was connected to the drainage catheter coming out of the abdominal cavity. Each opened layer, including the peritoneum, abdominal wall muscle, and skin, was closed with suture. The operative incision was protected with sterile gauze and a bandage, and the dogs were dressed in homemade underwear, coats, and Elizabeth circles. The drainage bag was placed in the pocket of the coat (Figure S8e). After the anesthetic wore off, the dogs were placed in cages, and food and water were provided ad libitum. The operative incision was sterilized with iodophor twice a day until stitches were removed six days after surgery. The drainage bag was replaced every day. On the eighth day after surgery, the 20 and 60 mg/kg with biliary drainage groups were orally administered a lyophilized powder of Amanita exitialis in starch capsules. In control and bile drainage group, the beagle dogs were fed with empty capsules. Immediately after dosing, the animals were placed in their cages, and food and water were provided ad libitum. Dogs were sacrificed with an overdose of sodium pentobarbital at the end of the experiment. All procedures were performed according to the ethical standards of the National Institutes of Health Guide for Animal Welfare and approved by the Institutional Animal Care and Use Committee (EAWE-2017-005).
# Peptide toxins in blood and urine samples were analyzed as described previously. Bile samples from Days 0–1, Days 1–2, Days 2–3, and Days 3–4 were collected and stored in medical drainage bags and the bile volume was recorded. Plasma and urine samples were stored at 2–8 °C until analysis for peptide toxins.
# UPLC and MS/MS parameters were as described in our previous study. The limit of detection and limit of quantitation of each toxin in the bile were 0.03 mg/kg and 0.5 mg/kg, respectively.
# [3] = 0–1 days, 60 mg/kg with biliary drainage group
# [4] = 20 mg/kg with biliary drainage group
# [5] = 60 mg/kg with biliary drainage group
# [6] = 1–2 days, 20 mg/kg with biliary drainage group
# [7] = 1–2 days, 60 mg/kg with biliary drainage group
# [8] = 2–3 days, 20 mg/kg with biliary drainage group
# [9] = 2–3 days, 60 mg/kg with biliary drainage group
# [10] = 3-4d, 20 mg/kg with biliary drainage group
# [11] = 3-4d, 60 mg/kg with biliary drainage group
# [12] = 3–4 days, 20 mg/kg with biliary drainage group
# [13] = 3–4 days, 60 mg/kg with biliary drainage group
compound,measurement,setting,value
"CC(C)[C@@H]1NC(=O)[C@H](C[C@@](C)(O)CO)NC(=O)[C@@H]2Cc3c([nH]c4ccccc34)SC[C@H](NC(=O)[C@@H]([C@H](O)C(=O)O)NC1=O)C(=O)N1C[C@@H](O)C[C@H]1C(=O)N[C@@H](C)C(=O)N2 [phallacidin] (cyclo(A[Trp(2-yl)][Leu(4R-OH,5-OH)]V[dAsp(3S-OH)]C[cisHyp]); thioether 2-6)","daily amount excreted in urine, without biliary drainage","[1]; 0-1d, 20 mg/kg group",0.0035 mg
same,"percentage in parentheses, urine, without biliary drainage","[1]; 0-1d, 20 mg/kg group",94.2%
same,"daily amount excreted in urine, without biliary drainage","[1]; 0-1d, 60 mg/kg group",0.0088 mg
same,"percentage in parentheses, urine, without biliary drainage","[1]; 0-1d, 60 mg/kg group",76%
same,"Accumulative amount excreted in urine, without biliary drainage",[1]; 20 mg/kg group,0.0037 mg
same,"percentage in parentheses, Accumulative amount, urine, without biliary drainage",[1]; 20 mg/kg group,100%
same,"percentage in parentheses, Accumulative amount, urine, without biliary drainage",[1]; 60 mg/kg group,100%
same,"percentage in parentheses, urine, without biliary drainage","[1]; 1-2d, 20 mg/kg group",100%
same,"daily amount excreted in urine, without biliary drainage","[1]; 1-2d, 60 mg/kg group",0.0110 mg
same,"percentage in parentheses, urine, without biliary drainage","[1]; 1-2d, 60 mg/kg group",93%
same,"daily amount excreted in urine, without biliary drainage","[1]; 2-3d, 20 mg/kg group",0 mg
same,"percentage in parentheses, urine, without biliary drainage","[1]; 2-3d, 20 mg/kg group",100%
same,"daily amount excreted in urine, without biliary drainage","[1]; 2-3d, 60 mg/kg group",0.0115 mg
same,"percentage in parentheses, urine, without biliary drainage","[1]; 2-3d, 60 mg/kg group",97.3%
same,"daily amount excreted in urine, without biliary drainage","[1]; 3-4d, 20 mg/kg group",0 mg
same,"percentage in parentheses, urine, without biliary drainage","[1]; 3-4d, 20 mg/kg group",100%
same,"daily amount excreted in urine, without biliary drainage","[1]; 3-4d, 60 mg/kg group",0.0118 mg
same,"percentage in parentheses, urine, without biliary drainage","[1]; 3-4d, 60 mg/kg group",100%
same,detection rate of peptide toxins in urine,"[2]; 0-1 d, 20 mg/kg with biliary drainage group",100%
same,detection rate of peptide toxins in urine,"[2]; 0-1 d, 60 mg/kg with biliary drainage group",100%
same,daily amount excreted in urine,"[2]; 0–1 days, 20 mg/kg with biliary drainage group",0.0012 mg
same,percentage of total urine excretion excreted daily,"[2]; 0–1 days, 20 mg/kg with biliary drainage group, 20 mg/kg",more than 90%
same,percentage of total urine excretion excreted daily,"[2]; 0–1 days, 20 mg/kg with biliary drainage group, listed as Phallacidin, 20 mg/kg",92.2%
same,daily amount excreted in urine,[2]; [3],0.0017 mg
same,percentage of total urine excretion excreted daily,[2]; [3],70.5%
same,Total (accumulated) amount excreted in urine,[2]; [4],0.0014 mg
same,"percentage of total urine excretion, Total",[2]; [4],100%
same,Total (accumulated) amount excreted in urine,[2]; [5],0.0025 mg
same,"percentage of total urine excretion, Total",[2]; [5],100%
same,time within which toxin was detected in urine,[2]; [4],two
same,time within which toxin was detected in urine,[2]; [5],three
same,detection rate of peptide toxins in urine,"[2]; 1-2 d, 20 mg/kg with biliary drainage group",83%
same,detection rate of peptide toxins in urine,"[2]; 1-2 d, 60 mg/kg with biliary drainage group",100%
same,daily amount excreted in urine,[2]; [6],0.0001 mg
same,percentage of total urine excretion excreted daily,[2]; [6],7.8%
same,daily amount excreted in urine,[2]; [7],0.0005 mg
same,percentage of total urine excretion excreted daily,[2]; [7],22.1%
same,detection rate of peptide toxins in urine,"[2]; 2-3 d, 20 mg/kg with biliary drainage group",0%
same,toxin content in urine,"[2]; 2-3d, 20 mg/kg with biliary drainage group, mean ± SD",0 µg/L
same,detection rate of peptide toxins in urine,"[2]; 2-3 d, 60 mg/kg with biliary drainage group",50%
same,daily amount excreted in urine,[2]; [8],0(0%) mg
same,percentage of total urine excretion excreted daily,[2]; [8],0(0%)
same,daily amount excreted in urine,[2]; [9],0.0002 mg
same,percentage of total urine excretion excreted daily,[2]; [9],7.5%
same,detection rate of peptide toxins in urine,[2]; [10],0%
same,toxin content in urine,[2]; [10],0 µg/L
same,detection rate of peptide toxins in urine,[2]; [11],0%
same,toxin content in urine,[2]; [11],0 µg/L
same,daily amount excreted in urine,[2]; [12],0(0%) mg
same,percentage of total urine excretion excreted daily,[2]; [12],0(0%)
same,daily amount excreted in urine,[2]; [13],0(0%) mg
same,percentage of total urine excretion excreted daily,[2]; [13],0(0%)
same,share of total urine excretion in the 0–2-day urine,"[2]; beagles with biliary drainage, both dose groups",more than 90%
